Experiments:
Boophilus, Biarra strain = assay: In-vitro test for ovicidal and adulticidal effect on ticks; design: species or system Boophilus microplus
Procedure: In-vitro test for ovicidal and adulticidal effect on ticks
The ovicidal effect is determined as stated in Example 1.
In addition, the adulticidal effectiveness of the preparation of the given active compound after 24 hours is determined by ascertaining the voluntary movement of limbs and bodies of the immersed adult ticks after stimulation with a fine needle compared with the voluntary movement of limbs and bodies of the untreated adult ticks. The effectiveness is stated in %, 100% meaning that no movements of any kind of the limbs and bodies were any longer detectable, and 0% signifying that the ticks moved limbs and bodies in normal manner.
The results below were obtained in a similar manner to those in accordance with Example 4.

[1] = tested on: Boophilus microplus, Ridgeland strain (resistant); assay: In-vitro test for ovicidal effect on ticks (Ridgeland strain); settings: Table 1b, * Ridgeland strain
Procedure: (§1) In-vitro Test for Ovicidal Effect on Ticks
3 g of the particular active compound are mixed with 7 g of a mixture of equal parts by weight of ethyleneglycol monomethyl ether and nonylphenyl polyglycol ether. The emulsion concentrate so obtained is diluted with water to the application concentration desired in each case.
Adult, fully engorged female ticks of the species Boophilus microplus (resistant) are immersed for 1 minute in this preparation of the given active compound. After immersion of, in each case, 10 female specimens of the various strains of ticks, the individual ticks are transferred to plastic dishes, the bottom of each of which is covered with a disc of filter paper. As a control, similar ticks of a normally sensitive strain are treated in exactly the same manner.
After 35 days, the effectiveness of the preparation of the given active compound is determined by ascertaining the inhibition of the depositing of fertile eggs compared with the egg depositing of untreated control ticks. The effect is stated in %, 100% meaning that fertile eggs ceased to be deposited, and 0% signifying that the ticks have deposited eggs in normal manner like the untreated control ticks.

[2] = tested on: Boophilus microplus, Biarra strain; assay: In-vivo test against ticks on cattle; design: species or system Boophilus microplus (on cattle); settings: 0.3%
Procedure: In-vivo test against ticks on cattle
3 parts of the particular active compound are mixed with 7 parts of a mixture of equal parts by weight of ethyleneglycol monomethyl ether and nonylphenyl polyglycol ether. The emulsion concentrate so obtained is diluted with water to the application concentration desired in each case.
Cattle which have been infected (12 times at intervals of 2 days) with resistant larvae of ticks of the species Boophilus microplus, Biarra strain, are sprayed on the 24th day after the first infection with the preparation of the given active compound so obtained.
The effect of the preparation of the given active compound is determined by ascertaining the number of adult female ticks which have reached development on the treated cattle and later lay viable eggs. This number is compared with the number of adult femal ticks which have reached development on untreated cattle.
As a measure of the intensity of the infestation before treatment, there is used the number of adult females which reach development in the case of the treated and untreated animals in the last three days before the time of treatment.

[3] = tested on: Boophilus microplus, Biarra strain (resistant); assay: In-vitro test for ovicidal effect on ticks (Biarra strain); settings: Table 1b
Procedure: as §1
The emulsion concentrate so obtained is diluted with water to the application concentration desired in each case.
After immersion of, in each case, 10 female specimens of the various strains of ticks, the individual ticks are transferred to plastic dishes, the bottom of each of which is covered with a disc of filter paper.

[4] = Table 5, concentration giving 50% inhibition
[5] = Table 5, concentration giving 100% inhibition
[6] = Table 4, concentration giving 50% inhibition
[7] = Table 4, concentration giving 100% inhibition
[8] = concentration giving 100% inhibition
[9] = concentration giving >50% inhibition

C=C(C)CN1CCCC1=Nc1cc(Cl)c(Cl)cc1Cl
Adulticidal and ovicidal effect: 50% inhibition with the stated concentration of active compound (Boophilus, Biarra strain; [4]): 0.1 % by weight
Adulticidal and ovicidal effect: 100% inhibition with the stated concentration of active compound (Boophilus, Biarra strain; [5]): 0.3 % by weight

C=CCN1CCCC1=Nc1ccc(C)c(Cl)c1
Adulticidal and ovicidal effect: 50% inhibition with the stated concentration of active compound (Boophilus, Biarra strain; [6]): 0.01 % by weight
Adulticidal and ovicidal effect: 100% inhibition with the stated concentration of active compound (Boophilus, Biarra strain; [7]): 0.03 % by weight

CCCN1CCCC1=Nc1ccc(F)c(Cl)c1
Adulticidal and ovicidal effect: 50% inhibition with the stated concentration of active compound (Boophilus, Biarra strain; [6]): 0.03 % by weight
Adulticidal and ovicidal effect: 100% inhibition with the stated concentration of active compound (Boophilus, Biarra strain; [7]): 0.1 % by weight

CCN1CCCC1=Nc1ccc(Cl)c(Br)c1
Adulticidal and ovicidal effect: 50% inhibition with the stated concentration of active compound (Boophilus, Biarra strain; [6]): 0.05 % by weight
Adulticidal and ovicidal effect: 100% inhibition with the stated concentration of active compound (Boophilus, Biarra strain; [7]): 0.1 % by weight

CC=CCN1CCCC1=Nc1ccc(Cl)cc1C
Adulticidal and ovicidal effect: 50% inhibition with the stated concentration of active compound (Boophilus, Biarra strain; [4]): 0.008 % by weight
Adulticidal and ovicidal effect: 100% inhibition with the stated concentration of active compound (Boophilus, Biarra strain; [5]): 0.01 % by weight

CCCCN1CCCC1=Nc1ccc(C)c(Br)c1
Adulticidal and ovicidal effect: 50% inhibition with the stated concentration of active compound (Boophilus, Biarra strain; [4]): 0.02 % by weight
Adulticidal and ovicidal effect: 100% inhibition with the stated concentration of active compound (Boophilus, Biarra strain; [5]): 0.03 % by weight

CC=CCN1CCCC1=Nc1ccc(C)c(Cl)c1
Adulticidal and ovicidal effect: 50% inhibition with the stated concentration of active compound (Boophilus, Biarra strain; [4]): 0.008 % by weight
Adulticidal and ovicidal effect: 100% inhibition with the stated concentration of active compound (Boophilus, Biarra strain; [5]): 0.1 % by weight

CCCCN1CCCC1=Nc1ccc(Br)c(C)c1
Adulticidal and ovicidal effect: 50% inhibition with the stated concentration of active compound (Boophilus, Biarra strain; [4]): 0.05 % by weight
Adulticidal and ovicidal effect: 100% inhibition with the stated concentration of active compound (Boophilus, Biarra strain; [5]): 0.1 % by weight

C=CCCN1CCCC1=Nc1ccc(Cl)c(Cl)c1
Adulticidal and ovicidal effect: 50% inhibition with the stated concentration of active compound (Boophilus, Biarra strain; [4]): 0.1 % by weight
Adulticidal and ovicidal effect: 100% inhibition with the stated concentration of active compound (Boophilus, Biarra strain; [5]): 0.3 % by weight

C=C(C)CN1CCCC1=Nc1ccc(Cl)c(C)c1
Adulticidal and ovicidal effect: 50% inhibition with the stated concentration of active compound (Boophilus, Biarra strain; [4]): 0.01 % by weight
Adulticidal and ovicidal effect: 100% inhibition with the stated concentration of active compound (Boophilus, Biarra strain; [5]): 0.1 % by weight

CCCN1CCCC1=Nc1ccc(Cl)cc1C [Compound 211]
Ovicidal effect: 100% inhibition with the stated concentration of active compound [1, 8]: 0.1 % by weight
Ovicidal effect: >50% inhibition with the stated concentration of active compound [1, 9]: 0.03 % by weight

CCCCN1CCCC1=Nc1ccc(Cl)c(Br)c1
Adulticidal and ovicidal effect: 50% inhibition with the stated concentration of active compound (Boophilus, Biarra strain; [6]): 0.03 % by weight
Adulticidal and ovicidal effect: 100% inhibition with the stated concentration of active compound (Boophilus, Biarra strain; [7]): 0.1 % by weight

CC=CCN1CCCC1=Nc1cc(Cl)c(Cl)cc1Cl
Adulticidal and ovicidal effect: 50% inhibition with the stated concentration of active compound (Boophilus, Biarra strain; [4]): 0.03 % by weight
Adulticidal and ovicidal effect: 100% inhibition with the stated concentration of active compound (Boophilus, Biarra strain; [5]): 0.1 % by weight

CC=CCN1CCCC1=Nc1ccc(Cl)c(Cl)c1
Adulticidal and ovicidal effect: 50% inhibition with the stated concentration of active compound (Boophilus, Biarra strain; [6]): 0.03 % by weight
Adulticidal and ovicidal effect: 100% inhibition with the stated concentration of active compound (Boophilus, Biarra strain; [7]): 0.01 % by weight

CCCCN1CCCC1=Nc1ccc(F)c(Cl)c1
Adulticidal and ovicidal effect: 50% inhibition with the stated concentration of active compound (Boophilus, Biarra strain; [6]): 0.03 % by weight
Adulticidal and ovicidal effect: 100% inhibition with the stated concentration of active compound (Boophilus, Biarra strain; [7]): 0.1 % by weight

C=C(C)CN1CCCC1=Nc1ccc(Cl)cc1C
Adulticidal and ovicidal effect: 50% inhibition with the stated concentration of active compound (Boophilus, Biarra strain; [4]): 0.02 % by weight
Adulticidal and ovicidal effect: 100% inhibition with the stated concentration of active compound (Boophilus, Biarra strain; [5]): 0.03 % by weight

CCCCN1CCCC1=Nc1ccc(Cl)c(Cl)c1 [Compound 71]
Number of female adult ticks which reach development on the cattle ([2]; days after treatment +1+2+3): 3
Number of female adult ticks which reach development on the cattle ([2]; days after treatment +4+5+6): 1
Number of female adult ticks which reach development on the cattle ([2]; days after treatment +7+8+9): 0
Number of female adult ticks which reach development on the cattle ([2]; days after treatment +10+11+12): 11
Number of female adult ticks which reach development on the cattle ([2]; days after treatment +13+14+15): 1
Number of female adult ticks which reach development on the cattle ([2]; days after treatment +16+17+18): 2
Number of female adult ticks which reach development on the cattle ([2]; days after treatment +19+20+21): 0
Number of female adult ticks which reach development on the cattle ([2]; days before treatment -2 -1 0 (baseline)): 231
Total number of female adult ticks which reach development on the cattle ([2]; total 1-21 days): 18
Ovicidal effect: 100% inhibition with the stated concentration of active compound [3, 8]: 0.03 % by weight
Ovicidal effect: >50% inhibition with the stated concentration of active compound [3, 9]: 0.01 % by weight
